Patent publication US6465509B2, “Pyrones as inhibitors of cyclooxygenase-2” (Merck Frosst Canada & Co., priority 2000, dated 2002)

How the values were obtained:
COX-2 [1] = biological target: T1, COX-2 (Homo sapiens, UniProt P35354); test: Whole cell assay for COX-2 using CHO[hCOX-2] transfected cell line; format: cell-based; design: expressed in transfected cells; host or cells: CHO cells stably transfected with pCDNAIII (CHO[hCOX-2]); conditions: CHO[hCOX-2] cells, PGE2 synthesis, 10 μM AA
T1 sequence (P35354 18-604): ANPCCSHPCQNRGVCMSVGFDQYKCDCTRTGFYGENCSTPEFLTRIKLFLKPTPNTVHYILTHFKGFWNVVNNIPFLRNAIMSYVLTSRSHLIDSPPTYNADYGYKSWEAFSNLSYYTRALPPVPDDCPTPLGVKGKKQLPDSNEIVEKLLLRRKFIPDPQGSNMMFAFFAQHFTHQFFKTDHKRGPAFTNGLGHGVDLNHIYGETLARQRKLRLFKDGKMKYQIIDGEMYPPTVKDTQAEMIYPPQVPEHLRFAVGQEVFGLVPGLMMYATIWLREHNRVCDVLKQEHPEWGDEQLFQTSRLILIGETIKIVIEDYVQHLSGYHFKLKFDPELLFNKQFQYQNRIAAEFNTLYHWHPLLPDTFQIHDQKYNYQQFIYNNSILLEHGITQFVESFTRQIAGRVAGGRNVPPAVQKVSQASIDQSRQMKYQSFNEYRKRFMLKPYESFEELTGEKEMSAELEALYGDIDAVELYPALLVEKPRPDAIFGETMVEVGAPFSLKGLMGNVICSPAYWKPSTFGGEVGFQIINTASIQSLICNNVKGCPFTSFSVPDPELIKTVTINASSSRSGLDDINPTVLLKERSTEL
Excerpt: Whole cell assays for COX-2 and COX-1 using CHO transfected cell lines
Chinese hamster ovary (CHO) cell lines which have been stably transfected with an eukaryotic expression vector pCDNAIII containing either the human COX-1 or COX-2 cDNA's are used for the assay. These cell lines are referred to as CHO[hCOX-1] and CHO[hCOX-2], respectively. For cyclooxygenase assays, CHO[hCOX-1] cells from suspension cultures and CHO[hCOX-2] cells prepared by trypsinization of adherent cultures are harvested by centrifugation (300×g, 10 min) and washed once in HBSS containing 15 mM HEPES, pH 7.4, and resuspended in HBSS, 15 mM HEPES, pH 7.4, at a cell concentration of 1.5×10^6 cells/ml. Drugs to be tested are dissolved in DMSO to 66.7-fold the highest test drug concentration. Compounds are typically tested at 8 concentrations in duplicate using serial 3-fold serial dilutions in DMSO of the highest drug concentration. Cells (0.3×10^6 cells in 200 μl) are preincubated with 3 μl of the test drug or DMSO vehicle for 15 min at 37° C. Working solutions of peroxide-free AA (5.5 μM and 110 μM AA for the CHO[hCOX-1] and CHO[COX-2] assays, respectively) are prepared by a 10-fold dilution of a concentrated AA solution in ethanol into HBSS containing 15 mM HEPES, pH 7.4. Cells are then challenged in the presence or absence of drug with the AA/HBSS solution to yield a final concentration of 0.5 μM AA in the CHO[hCOX-1] assay and a final concentration of 10 μM AA in the CHO[hCOX-2] assay. The reaction is terminated by the addition of 10 μl 1N HCl followed by neutralization with 20 μl of 0.5N NaOH. The samples are centrifuged at 300×g at 4° C. for 10 min, and an aliquot of the clarified supernatant is appropriately diluted for the determination of PGE2 levels using an enzyme-linked immunoassay for PGE2 (Correlate PGE2 enzyme immunoassay kit, Assay Designs, Inc.). Cyclooxygenase activity in the absence of test compounds is determined as the difference in PGE2 levels of cells challenged with arachidonic acid versus the PGE2 levels in cells mock-challenged with ethanol vehicle. Inhibition of PGE2 synthesis by test compounds is calculated as a percentage of the activity in the presence of drug versus the activity in the positive control samples.
Compounds of the present invention are inhibitors of cyclooxygenase-2 and are thereby useful in the treatment of cyclooxygenase-2 mediated diseases as enumerated above. The activities of the compounds against cyclooxygenase may be seen in the representative results shown below. In the assay, inhibition is determined by measuring the amount of prostaglandin E2 (PGE2) synthesized in the presence of arachidonic acid, cyclooxygenase-1 or cyclooxygenase-2 and a putative inhibitor. The IC50 values represent the concentration of putative inhibitor required to return PGE2 synthesis to 50% of that obtained as compared to the uninhibited control.

COX-2 [2] = biological target: T1, COX-2; test: Human whole blood assay, COX-2 (LPS-induced PGE2 production); format: cell-based; design: endogenous in cells; host or cells: fresh heparinized human whole blood from volunteers, incubated with LPS; conditions: LPS-induced PGE2, 24 hours at 37° C., read-out: COX-2 (IC50 μM) HWB
Method: Human whole blood provides a protein and cell-rich milieu appropriate for the study of biochemical efficacy of anti-inflammatory compounds such as selective COX-2 inhibitors. […] This is consistent with the observation that COX-2 inhibitors have no effect on PGE2 production in normal blood. These inhibitors are active only after incubation of human whole blood with LPS, which induces COX-2. This assay can be used to evaluate the inhibitory effect of selective COX-2 inhibitors on PGE2 production. As well, platelets in whole blood contain a large amount of the COX-1 enzyme. Immediately following blood clotting, platelets are activated through a thrombin-mediated mechanism. This reaction results in the production of thromboxane B2 (TxB2) via activation of COX-1. Thus, the effect of test compounds on TxB2 levels following blood clotting can be examined and used as an index for COX-1 activity. Therefore, the degree of selectivity by the test compound can be determined by measuring the levels of PGE2 after LPS induction (COX-2) and TxB2 following blood clotting (COX-1) in the same assay.
A. COX-2 (LPS-induced PGE2 production)
Fresh blood is collected in heparinized tubes by venipuncture from both male and female volunteers. The subjects have no apparent inflammatory conditions and have not taken any NSAIDs for at least 7 days prior to blood collection. Plasma is immediately obtained from a 2 mL blood aliquot to use as blank (basal levels of PGE2). The remaining blood is incubated with LPS (100 μg/ml final concentration, Sigma Chem, #L-2630 from E. coli; diluted in 0.1% BSA (Phosphate buffered saline) for 5 minutes at room temperature. Five hundred μL aliquots of blood are incubated with either 2 μL of vehicle (DMSO) or 2 μL of a test compound at final concentrations varying from 10 nM to 30 μM for 24 hours at 37° C. At the end of the incubation, the blood is centrifuged at 12,000×g for 5 minutes to obtain plasma. A 100 μL aliquot of plasma is mixed with 400 μL of methanol for protein precipitation. The supernatant is obtained and is assayed for PGE2 using a radioimmunoassay kit (Amersham, RPA#530) after conversion of PGE2 to its methyl oximate derivative according to the manufacturer's procedure.

IC50 (COX-2 [1]): 0.37 µM
IC50 (COX-2 [2]): 10.5 µM
Structure (SMILES): CS(=O)(=O)c1ccc(-c2cc(CC(F)(F)F)oc(=O)c2-c2ccccc2)cc1 [Example 13, 4-(4-Methylsulfonyl)phenyl-3-phenyl-6-(2,2,2-trifluoroethyl)-pyran-2-one]
